From EP4810035A1, “TREATMENT OF MODERATE TO SEVERE PLAQUE PSORIASIS” (Ganzhou Hemay Pharmaceutical, Co., Ltd, priority 2023, dated 2025)

Legend:
healthy Chinese subjects = assay: Phase I clinical study, multiple oral doses (Example 6); type: in vivo, human; conditions: multiple oral doses of 15 mg BID, 30 mg BID, 60 mg BID, 75 mg BID; 36 healthy Chinese subjects
Description: A total of 36 healthy Chinese subjects participated in a phase I clinical study, in which multiple oral doses of 15 mg BID, 30 mg BID, 60 mg BID, 75 mg BID of the compound in Example 2, or a placebo were administered, respectively.

[1] = tested on: Patients with plaque psoriasis; assay: Multicenter, randomized, double-blind, placebo-parallel controlled dose study in plaque psoriasis (Example 5); type: in vivo, human; conditions: for PASI-75 response rate (%): week 16
Description: This was a multicenter, randomized, double-blind, placebo-parallel controlled study. A total of 216 subjects were enrolled and randomized in a 1:1:1:1 ratio into the low-dose group (15 mg BID), mid-dose group (30 mg BID), high-dose group (60 mg BID) of the investigational drug, and the placebo group for a 16-week core treatment period. Upon completion of the core treatment, subjects in the low, mid and high-dose groups maintained their original doses for a 36-week extension treatment period. Subjects in the placebo group were switched to the mid-dose group (30 mg BID) for the 36-week extension treatment after completing the core period. All subjects completed a total of 52 weeks of treatment. Subjects who completed 52 weeks of treatment or discontinued prematurely should enter a 4-week follow-up period. […]

[2] = tested on: patients with moderate to severe chronic plaque psoriasis; assay: Clinical study on patients (Example 3), 16-week core treatment period, 36-week extension, 4-week follow-up, placebo-controlled; type: in vivo, human
Description: This study selected patients with moderate to severe chronic plaque psoriasis as target subjects. Specific criteria were set for disease duration, severity and extent (psoriasis history ≥ 6 months, PASI score ≥ 12, sPGA score ≥ 3, and BSA ≥ 10). […] Primary efficacy endpoint: PASI-75 at week 16. […] Improvement in pruritus symptoms and changes in DLQI scores were also evaluated. The study consisted of a 16-week core treatment period, a 36-week extension treatment period and a 4-week follow-up period. Subjects in the experimental group received 60 mg BID of the compound in Example 2. During the extension treatment period, subjects in the placebo group also received 60 mg BID of the compound in Example 2.

[3] = tested on: subjects with moderate to severe plaque psoriasis; assay: Phase III study of moderate to severe plaque psoriasis (Example 4), double-blind placebo-controlled core period and open-label extension; conditions: for HADS Anxiety Score, Mean / HADS Depression Score, Mean: Experimental group (N=211)
Description: Tablets of the compound shown in Example 2 with a strength of 15 mg per tablet.
Control Drug: Placebo tablets matching the investigational drug with a strength of 0 mg per tablet.
• 1) Aged ≥ 18 years at the time of signing the Informed Consent Form (ICF), of any gender. • 2) Clinically diagnosed with stable plaque psoriasis, with a psoriasis history of ≥ 6 months (prior to randomization). • 3) The following requirements are met at screening and baseline: • a. Psoriasis Area and Severity Index (PASI) score ≥ 12; and • b. Static Physician Global Assessment (sPGA) score ≥ 3 (based on an sPGA 0-4 scale); and • c.
The treatment period consisted of two phases: during the double-blind core treatment period, subjects received 60 mg BID of the investigational drug or placebo for 16 weeks (week 0 to week 16); during the open-label extension treatment period, all subjects received 60 mg BID of the investigational drug for 36 weeks (week 16 to week 52).
A total of 305 subjects were enrolled (211 in the experimental group and 94 in the placebo group; including 105 T-SPOT positive subjects without active tuberculosis, 7 subjects with previously confirmed pulmonary tuberculosis, 76 subjects with a history of tuberculosis, and 1 subject with a history of tuberculous pleurisy).
The primary efficacy endpoint was the proportion of subjects achieving PASI 75 at week 16 compared to baseline. The key secondary efficacy endpoint was an sPGA 0/1 with a reduction of ≥2 points from baseline at week 16. Other secondary efficacy endpoints included the proportion of subjects achieving PASI-90, PASI-75, PASI-50, and both PASI-75 and sPGA 0/1 with a ≥ 2-point reduction from baseline at each visit, as well as the rate of change in BSA. Clinical observation and evaluation were conducted over the 16-week core treatment period, the 36-week extension treatment period and the 4-week follow-up period. The Hospital Anxiety and Depression Scale (HADS) was used as an assessment tool to observe and evaluate the anxiety and depression status of subjects at screening, the end of the 16-week core period and 4 weeks after the last dose.

[4] = by the end of the clinical study
[5] = 16-week core treatment period, 60 mg BID, N=211

For `CCOc1cc([C@@H](CS(C)(=O)=O)N2C(=O)c3csc(NC(C)=O)c3C2=O)ccc1OC` [Example 2, (S)-N-[5-[1-(3-ethoxy-4-methoxyphenyl)-2-(methylsulfonyl)ethyl]-4,6-dioxo-5,6-dihydro-5H-thieno[3,4-c]pyrrol-1-yl]acetamide], the safety and tolerability (healthy Chinese subjects) was “good safety and tolerability”, the “DLQI score change from baseline, Mean” value ([1]; 15mg BID Group (N=54)) was 4.9 and the “PASI-50 response rate (%)” value ([1]; 15mg BID Group (N=54)) was 42.59%. For the same compound, the “PASI-75 & sPGA 0/1 score (%)” value ([1]; 15mg BID Group (N=54)) was 12.96%, the “PASI-90 response rate (%)” value ([1]; 15mg BID Group (N=54)) was 16.67% and the “sPGA 0/1 score (%)” value ([1]; 15mg BID Group (N=54)) was 14.81%. The “DLQI score change from baseline, Mean” value ([1]; 30mg BID Group (N=54)) was 6.1, the “PASI-50 response rate (%)” value ([1]; 30mg BID Group (N=54)) was 51.85% and the “PASI-75 & sPGA 0/1 score (%)” value ([1]; 30mg BID Group (N=54)) was 14.81%. For the same compound, the “PASI-90 response rate (%)” value ([1]; 30mg BID Group (N=54)) was 11.11%, the “sPGA 0/1 score (%)” value ([1]; 30mg BID Group (N=54)) was 14.81% and the “DLQI score change from baseline, Mean” value ([1]; 60mg BID Group (N=54)) was 7.1. For the same compound, the “PASI-50 response rate (%)” value ([1]; 60mg BID Group (N=54)) was 62.96%, the “PASI-75 & sPGA 0/1 score (%)” value ([1]; 60mg BID Group (N=54)) was 24.07% and the “PASI-90 response rate (%)” value ([1]; 60mg BID Group (N=54)) was 20.37%. The “sPGA 0/1 score (%)” value ([1]; 60mg BID Group (N=54)) was 24.07%, the “Population pharmacokinetics and exposure-response analysis” value ([1]; 15, 30, 60 mg BID) was “the efficacy response rate increased with increasing doses” and the death events ([1]; 15, 30, 60 mg BID) was “No death events occurred”. For the same compound, the “adverse events of depression or anxiety” value [1, 4] was “no adverse events of depression or anxiety were reported”, the “occurrences of depression or suicidal ideation” value (“occurrences” below) [1, 4] was “no occurrences of depression or suicidal ideation were observed” and the “drug-related serious adverse events” value ([1]; core treatment period) was “No drug-related serious adverse events occurred”. The “Adverse events with an incidence of ≥10%” value ([1]; double-blind core treatment period (weeks 1 to 16)) was “diarrhea, nausea, headache, and fatigue”, the “drug-related adverse events with an incidence of ≥5% in any of the low, medium or high-dose groups” value ([1]; double-blind core treatment period (weeks 1 to 16), 15, 30, 60 mg BID) was “increased triglycerides, increased lipids, diarrhea, nausea, abdominal discomfort, hyperlipidemia, headache, and fatigue” and the “severity of adverse events leading to discontinuation” value (“severity of adverse events leading” for short) ([1]; in vivo) was “Grade 1 or Grade 2”. The “PASI-75 and PASI-90 efficacy endpoints in a subject who had failed adalimumab therapy” value ([1]; one subject) was “also achieved the PASI-75 and PASI-90 efficacy endpoints”, the “PASI-50 efficacy endpoint in subjects who had failed prior biologic therapy” value ([1]; one subject failed adalimumab, one failed secukinumab, one failed TNF-α monoclonal antibody therapy) was “all achieved the PASI-50 efficacy endpoint” and the “PASI-75 response rate (%)” value ([1]; 15mg BID Group (N=54)) was 18.52%. The “PASI-75 response rate (%)” value ([1]; 30mg BID Group (N=54)) was 25.93%, the “PASI-75 response rate (%)” value ([1]; 60mg BID Group (N=54)) was 46.30% and the deaths ([2]; 60 mg BID) was “No deaths occurred”. For the same compound, the “drug-related serious adverse events” value ([2]; 60 mg BID) was “No drug-related serious adverse events occurred”, the “severity of adverse events leading” value ([2]; 60 mg BID) was “all Grade 1 or Grade 2” and the “severity of drug-related adverse events” value ([2]; 60 mg BID) was “primarily Grade 1 or Grade 2”. The “Secondary Efficacy Indicators, difference compared to the placebo group” value ([2]; 60 mg BID, P<0.0001) was “statistically significant differences”, the “DLQI (LS mean)” value [2, 5] was 5.38 points and the PASI-90 [2, 5] was 32.5%. For the same compound, the tuberculosis reactivation ([2]; T-SPOT positive but non-active TB subjects, by the end of the clinical study) was “no tuberculosis reactivation occurred”, the “occurrences” value ([2]; by the end of the clinical study, any subjects) was “no occurrences of depression or suicidal ideation were observed” and the “proportion of subjects achieving PASI-75” value ([2]; week 16, 60 mg BID, N=211) was 53.6%. For the same compound, the “rate difference between the two groups (PASI-75)” value ([2]; week 16, Example 2 group vs placebo group) was 37.6%, the Chest imaging examinations ([2]; week 16 visit, T-SPOT positive but non-active TB subjects) was “no abnormalities” and the death events ([3]; 60 mg BID) was “No death events occurred”. The “incidence of adverse reaction: diarrhea” value ([3]; 60 mg BID) was 11.4%, the “incidence of adverse reaction: dizziness” value ([3]; 60 mg BID) was 9.0% and the “incidence of adverse reaction: fatigue” value ([3]; 60 mg BID) was 8.5%. The “incidence of adverse reaction: headache” value ([3]; 60 mg BID) was 8.1%, the “incidence of adverse reaction: hypertriglyceridemia” value ([3]; 60 mg BID) was 5.7% and the “incidence of adverse reaction: increased stool frequency” value ([3]; 60 mg BID) was 10.4%. For the same compound, the “incidence of adverse reaction: nausea” value ([3]; 60 mg BID) was 23.7%, the “incidence of adverse reaction: vomiting” value ([3]; 60 mg BID) was 10.0% and the “severity of adverse events leading” value ([3]; 60 mg BID) was “Grade 1 or Grade 2”. The “severity of the primary adverse reactions” value ([3]; 60 mg BID) was “Grade 1 or Grade 2”, the “time of occurrence of gastrointestinal reactions and nervous system abnormalities” value ([3]; 60 mg BID) was “mostly occurred within the first two weeks of administration” and the “tuberculosis activation (reactivation)” value ([3]; 105 T-SPOT positive subjects without active tuberculosis, 7 with previously confirmed pulmonary tuberculosis, 76 with history of tuberculosis, 1 with history of tuberculous pleurisy, by the end of the study) was “no instances of tuberculosis activation (reactivation) were observed”. The “HADS Anxiety Score, Mean” value ([3]; Week 16, 60 mg BID) was 2.3, the “HADS Depression Score, Mean” value ([3]; Week 16, 60 mg BID) was 3.0 and the “HADS Anxiety Score, Mean” value ([3]; Week 56, 60 mg BID) was 3.1. The “HADS Depression Score, Mean” value ([3]; Week 56, 60 mg BID) was 3.8, the “chest X-ray or CT examinations” value ([3]; any of the subjects) was “No clinical abnormalities related to tuberculosis were found” and the “adverse events of depression or anxiety related to the investigational drug” value [3, 4] was “No adverse events of depression or anxiety related to the investigational drug were observed”. For the same compound, the “difference between the experimental group and the placebo group in mean HADS anxiety scores and mean HADS depression scores” value [3, 4] was “no statistically significant differences (P>0.05)”, the “occurrences” value [3, 4] was “no occurrences of depression or suicidal ideation” and the “drug-related serious adverse events” value ([3]; core treatment period, 60 mg BID) was “No drug-related serious adverse events occurred”. For the same compound, the “PASI-50 efficacy endpoint in subjects who had failed prior adalimumab treatment” value ([3]; two subjects, 60 mg BID) was “both achieved the PASI-50 efficacy endpoint”, the “BSA rate of change (%)” value ([3]; week 16, 60 mg BID, N=211) was 65.0% and the “Both PASI-75 and sPGA 0/1 and reduction of ≥2 points from baseline (%)” value ([3]; week 16, 60 mg BID, N=211) was 30.3%. The “DLQI change from baseline, (mean)” value ([3]; week 16, 60 mg BID, N=211) was 5.38 points, the “PASI-50 (%)” value ([3]; week 16, 60 mg BID, N=211) was 82.7% and the “PASI-75 (%)” value ([3]; week 16, 60 mg BID, N=211) was 53.6%. The “PASI-90 (%)” value ([3]; week 16, 60 mg BID, N=211) was 32.5% and the “sPGA score of 0/1 and reduction of ≥2 points from baseline (%)” value ([3]; week 16, 60 mg BID, N=211) was 31.3%.
